In patent US12611415B2, “Methods and compounds for treatment of metabolic disease” (Monash University, priority 2019, dated 2026):

Assays:
[1] = tested on: LECs from adult human skin (HMLEC-dLyAd); assay: Lymphatic endothelial cell (LEC) migration scratch assay with HFD-lymph; assay type: cell-based; settings: 2% HFD-lymph; celecoxib 20 μM, MAZ51 5 μM
Procedure: LECs from adult human skin (HMLEC-dLyAd) were obtained from Lonza (Australia) at the 3rd passage. Cells were thawed and expanded in a T-75 flask at a minimum density of 500,000 cells per flask. Cells were grown in EGM-2MV BulletKit™ medium (CC-3162, Lonza, Australia), which consisted of EBM-2 basal medium supplemented with an EGM-2 SingleQuots™ kit (Lonza, Australia). Flasks were incubated at 37° C. and 5% CO2, and media was changed 24 h after seeding and then every 48 h. Cells were grown to 70-80% confluence and split every 4-5 days. For all experiments, cells were seeded onto plates or coverslips pre-coated with rat tail collagen Type I (50 μg/ml) for 1 h at 37° C. Cells were allowed to grow to 100% confluence (which typically occurred 1.5-2 days after seeding in a cell culture plate) prior to the start of experiments.
Once the LECs reached confluence, the impact of lymph fluid on LEC migration was assessed using a standard scratch assay. […]
Images taken at several time points after wounding (0, 12 and 24 hours) were analyzed using the Fiji distribution of ImageJ to determine the rate of LEC migration over the area of the scratched wound. To enable quantification of the area of the scratch wound, the brightness and contrast of the images was first adjusted to improve the visibility. An outline of the wound was manually drawn and the area of the wound was quantified at each time point. […]

[2] = biological target: T1, VEGF receptor (VEGFR)-3 (Homo sapiens, UniProt P35916); settings: endothelial cell lines, including cultured lymphatic endothelial cell lines; cited from earlier work
T1 construct: host or cells: endothelial cell lines, including cultured lymphatic endothelial cell lines
T1 sequence (P35916 25-1363): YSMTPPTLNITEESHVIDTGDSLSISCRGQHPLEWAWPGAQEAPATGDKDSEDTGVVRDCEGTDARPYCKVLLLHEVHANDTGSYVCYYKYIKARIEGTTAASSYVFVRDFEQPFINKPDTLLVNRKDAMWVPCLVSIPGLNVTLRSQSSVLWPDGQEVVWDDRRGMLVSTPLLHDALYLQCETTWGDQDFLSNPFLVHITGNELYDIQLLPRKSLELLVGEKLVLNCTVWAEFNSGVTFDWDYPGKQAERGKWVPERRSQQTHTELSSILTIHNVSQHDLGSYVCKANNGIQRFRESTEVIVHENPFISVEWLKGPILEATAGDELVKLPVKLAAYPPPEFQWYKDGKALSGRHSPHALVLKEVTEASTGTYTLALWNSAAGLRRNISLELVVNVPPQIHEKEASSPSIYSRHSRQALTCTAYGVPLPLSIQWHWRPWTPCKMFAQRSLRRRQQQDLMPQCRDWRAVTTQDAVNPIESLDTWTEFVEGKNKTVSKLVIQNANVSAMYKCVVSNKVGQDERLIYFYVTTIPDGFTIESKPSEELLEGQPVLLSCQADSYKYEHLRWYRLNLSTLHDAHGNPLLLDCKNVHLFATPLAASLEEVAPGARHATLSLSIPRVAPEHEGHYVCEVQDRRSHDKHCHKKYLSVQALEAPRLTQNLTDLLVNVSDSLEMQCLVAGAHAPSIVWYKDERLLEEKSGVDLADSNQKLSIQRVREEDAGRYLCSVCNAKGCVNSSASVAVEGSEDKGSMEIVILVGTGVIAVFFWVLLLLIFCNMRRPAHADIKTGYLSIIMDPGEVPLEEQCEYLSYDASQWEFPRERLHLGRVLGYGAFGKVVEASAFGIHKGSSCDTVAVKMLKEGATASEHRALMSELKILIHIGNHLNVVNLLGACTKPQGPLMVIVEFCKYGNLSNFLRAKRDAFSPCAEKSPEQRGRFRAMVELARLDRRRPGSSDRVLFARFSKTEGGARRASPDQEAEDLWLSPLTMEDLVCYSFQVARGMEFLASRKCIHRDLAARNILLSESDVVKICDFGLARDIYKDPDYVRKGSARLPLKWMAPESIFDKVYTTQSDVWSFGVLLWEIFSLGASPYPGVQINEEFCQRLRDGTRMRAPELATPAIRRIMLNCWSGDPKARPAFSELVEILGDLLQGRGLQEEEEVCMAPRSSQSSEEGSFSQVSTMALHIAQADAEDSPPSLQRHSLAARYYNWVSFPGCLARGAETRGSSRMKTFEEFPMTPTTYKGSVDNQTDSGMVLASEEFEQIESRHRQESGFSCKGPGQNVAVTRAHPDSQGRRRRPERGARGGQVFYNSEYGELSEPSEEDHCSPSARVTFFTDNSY

CN(C)c1ccc(/C=C2/C(=O)Nc3ccccc32)c2ccccc12 [MAZ51]
LEC migration induced by HFD-lymph [1]: inhibited
VEGF-C-dependent and VEGF-C-independent VEGFR-3 phosphorylation [2]: potently inhibit
